# Measured values reported in US20230227505A1, “IDENTIFICATION AND APPLICATION OF ALV-J MHC-B2 R[…] PEPTIDE” (South China Agricultural University, priority 2022, published 2023).
# System: spleen lymphocytes of B2-haplotype chicken infected with ALV-J
# Assay: IFN-γ ELISpot assay detecting immunogenicity of candidate peptides
# Type: cell-based
# Conditions: peptide 10 μg/mL as stimulant, spleen lymphocytes of B2-haplotype chicken infected for 28 d; for IFN-γ ELISpot spots generated compared with the negative control group: 24-48 h; for IFN-γ ELISpot spots, significance versus negative control (immunogenic T cell epitope): P<0.05, three independent replications
# Protocol: The B2-haplotype chicken infected for 28 d (day) in 2.1 is taken, and the spleen lymphocytes of the chicken are isolated according to the kit instructions of the chicken organ tissue mononuclear cell isolation solution, and an ELISpot assay is performed to detect the immunogenicity of candidate peptide epitopes. The specific steps are as follows:
# (1) PVDF 96-well plate activation: 15 μL 35% ethanol is added to each well for reaction for less than 1 min, and then the wells are washed five times with sterile water.
# (2) Antibody coating: the anti-chicken IFN-γ is diluted to 15 μg/mL, and 100 μL of that is added to each well, and the mixture is incubated at 4° C. overnight.
# (3) Blocking: the coating solution is discarded, followed by washing 5 times with DPBS, and the plate is dried on the sterilized absorbent paper. RMPI 1640 medium containing 10% FBS is added to PVDF 96-well plate at 200 μL/well and the reaction is blocked at room temperature for 30 min.
# (4) Stimulation: the blocking solution is discarded and 100 μL of prepared lymphocyte suspension at the concentration of 5*10^6 cells/mL is added to each well. At the same time, 50 μL diluted antigenic peptide is added to the experimental group at the final concentration of 10 μg/mL, PMA at the final concentration of 10 μg/mL is added to the positive control group, and no irritant is added to the negative control group. After all the samples are added, PVDF 96-well plate is placed in CO2 incubator at 37° C. for 24-48 h.
# (5) Incubation of secondary antibody: after the culture, the cells are shaken off and the plate is washed five times with DPBS. Then 100 μL biotinylated secondary antibody with a concentration of 1 μg/mL is added to each well and the plate is incubated for 2 h at room temperature.
# (6) HRP incubation: the secondary antibody solution is discarded and washed with DPBS for 5 times. Then 100 μL streptavidin-labeled HRP is added to the well and incubated at room temperature for 1 h.
# (7) Color development: the HRP incubation solution is discarded and the plate is washed with DPBS for 5 times. Then 100 μL TMB color-developing substrate is added to each well followed by incubation at room temperature or 37° C. for 15-30 min. When obvious spots appeared in the positive control group, the color-developing solution could be discarded. the color development is stopped with pure water and the plate is read after air drying.
Sequence,IFN-γ ELISpot spots generated compared with the negative control group,"IFN-γ ELISpot spots, significance versus negative control (immunogenic T cell epitope)"
FVDFANRLI (ALV-J-59),could generate spots,significantly produce more spots
SALQAFREV (ALV-J-61),could generate spots,significantly produce more spots
TVDTASSAI (ALV-J-52),could generate spots,significantly produce more spots
